Assay results: BindingDB's records for doi:10.1021/jm7012858 (Wyeth Research, 2008)

Target: Phosphatidylinositol 3-kinase regulatory subunit alpha/4,5-bisphosphate 3-kinase catalytic subunit alpha isoform (Homo sapiens, UniProt P42336)
Experiment: PI3K Inhibition Assay
Settings: not given
Method: Inhibition of PI3K enzyme activity is measured in a microtiter plate-based fluorescence polarization (FP) assay.

Sequence of Phosphatidylinositol 3-kinase regulatory subunit alpha/4,5-bisphosphate 3-kinase catalytic subunit alpha isoform (P27986 whole entry, canonical isoform): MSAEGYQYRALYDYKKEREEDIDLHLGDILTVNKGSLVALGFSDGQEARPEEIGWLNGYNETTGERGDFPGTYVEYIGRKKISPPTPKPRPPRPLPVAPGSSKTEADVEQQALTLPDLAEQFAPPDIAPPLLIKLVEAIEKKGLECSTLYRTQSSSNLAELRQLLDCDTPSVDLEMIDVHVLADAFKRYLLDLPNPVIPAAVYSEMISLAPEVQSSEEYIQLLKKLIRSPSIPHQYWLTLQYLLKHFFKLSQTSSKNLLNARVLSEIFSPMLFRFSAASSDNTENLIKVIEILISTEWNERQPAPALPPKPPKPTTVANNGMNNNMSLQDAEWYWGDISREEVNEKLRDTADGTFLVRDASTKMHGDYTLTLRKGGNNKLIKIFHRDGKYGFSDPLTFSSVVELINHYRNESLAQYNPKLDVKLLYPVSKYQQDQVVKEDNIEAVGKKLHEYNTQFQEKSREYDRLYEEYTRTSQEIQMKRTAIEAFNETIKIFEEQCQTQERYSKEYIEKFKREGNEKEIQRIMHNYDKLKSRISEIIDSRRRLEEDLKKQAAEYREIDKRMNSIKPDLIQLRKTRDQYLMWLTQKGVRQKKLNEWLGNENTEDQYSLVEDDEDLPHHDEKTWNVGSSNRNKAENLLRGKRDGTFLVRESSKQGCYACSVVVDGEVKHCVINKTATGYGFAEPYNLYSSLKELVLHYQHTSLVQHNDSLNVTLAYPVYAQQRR
Sequence of Phosphatidylinositol 3-kinase regulatory subunit alpha/4,5-bisphosphate 3-kinase catalytic subunit alpha isoform (P42336 whole entry, canonical isoform): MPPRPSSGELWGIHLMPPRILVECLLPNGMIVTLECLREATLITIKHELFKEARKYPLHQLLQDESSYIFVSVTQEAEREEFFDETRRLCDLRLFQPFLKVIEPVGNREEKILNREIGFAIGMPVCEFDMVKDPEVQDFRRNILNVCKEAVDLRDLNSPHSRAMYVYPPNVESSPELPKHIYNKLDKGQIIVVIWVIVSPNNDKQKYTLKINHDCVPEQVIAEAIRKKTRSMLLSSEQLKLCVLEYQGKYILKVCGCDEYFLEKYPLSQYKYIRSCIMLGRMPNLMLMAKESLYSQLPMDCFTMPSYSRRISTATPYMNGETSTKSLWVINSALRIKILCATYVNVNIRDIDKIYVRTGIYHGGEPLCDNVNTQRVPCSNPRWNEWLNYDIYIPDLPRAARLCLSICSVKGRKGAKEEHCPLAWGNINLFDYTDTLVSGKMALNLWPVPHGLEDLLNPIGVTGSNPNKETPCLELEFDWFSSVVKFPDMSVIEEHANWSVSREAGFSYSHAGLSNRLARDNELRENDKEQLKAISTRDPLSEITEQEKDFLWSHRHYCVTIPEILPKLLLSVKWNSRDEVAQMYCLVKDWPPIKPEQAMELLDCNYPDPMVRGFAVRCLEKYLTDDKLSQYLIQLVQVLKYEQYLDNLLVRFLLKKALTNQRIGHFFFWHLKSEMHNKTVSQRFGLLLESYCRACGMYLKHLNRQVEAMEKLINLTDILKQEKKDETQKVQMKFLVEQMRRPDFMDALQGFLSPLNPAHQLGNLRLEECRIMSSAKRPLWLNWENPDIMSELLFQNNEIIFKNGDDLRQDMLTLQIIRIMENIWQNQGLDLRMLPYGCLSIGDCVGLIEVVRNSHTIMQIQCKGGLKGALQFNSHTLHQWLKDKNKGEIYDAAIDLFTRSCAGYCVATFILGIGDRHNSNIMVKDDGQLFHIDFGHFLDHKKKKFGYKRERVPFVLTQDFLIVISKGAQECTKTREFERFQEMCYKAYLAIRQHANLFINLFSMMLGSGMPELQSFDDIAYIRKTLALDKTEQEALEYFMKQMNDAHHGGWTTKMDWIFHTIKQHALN

First: COC[C@H]1OC(=O)C(=CN2CCC(C(=O)O)CC2)C2C(=O)C(=O)C3=C([C@H](OC(C)=O)C[C@@]4(C)C3CC[C@@H]4O)[C@]21C (stereo partly drawn) [1-{[(2R,3S,6E,14S,15S,17R)-17-(acetyloxy)-8,14-dihydroxy-3-(methoxymethyl)-2,15-dimethyl-5,9-dioxo-4-oxatetracyclo[8.7.0.0^{2,7}.0^{11,15}]heptadeca-1(10),7-dien-6-ylidene]methyl}piperidine-4-carboxylic acid]
Second: COC[C@H]1OC(=O)C(=CN2CCCCC2)C2C(=O)C(=O)C3=C([C@H](OC(C)=O)C[C@@]4(C)C3CC[C@@H]4O)[C@]21C (stereo partly drawn) [(2R,3S,6E,14S,15S,17R)-8,14-dihydroxy-3-(methoxymethyl)-2,15-dimethyl-5,9-dioxo-6-(piperidin-1-ylmethylidene)-4-oxatetracyclo[8.7.0.0^{2,7}.0^{11,15}]heptadeca-1(10),7-dien-17-yl acetate]
The IC50 of the first is 3.2-fold lower: 33 nM for the first, 104 nM for the second. The first is the more potent here.

Compared with `COC[C@H]1OC(=O)C(=CN(C)CCCC(=O)O)C2C(=O)C(=O)C3=C([C@H](OC(C)=O)C[C@@]4(C)C3CC[C@@H]4O)[C@]21C` (stereo partly drawn) [4-({[(2R,3S,6E,14S,15S,17R)-17-(acetyloxy)-8,14-dihydroxy-3-(methoxymethyl)-2,15-dimethyl-5,9-dioxo-4-oxatetracyclo[8.7.0.0^{2,7}.0^{11,15}]heptadeca-1(10),7-dien-6-ylidene]methyl}(methyl)amino)butanoic acid], `COC[C@H]1OC(=O)C(=CN(C)CCN(C)C)C2C(=O)C(=O)C3=C([C@H](OC(C)=O)C[C@@]4(C)C3CC[C@@H]4O)[C@]21C` (stereo partly drawn) [(2R,3S,6E,14S,15S,17R)-6-({[2-(dimethylamino)ethyl](methyl)amino}methylidene)-8,14-dihydroxy-3-(methoxymethyl)-2,15-dimethyl-5,9-dioxo-4-oxatetracyclo[8.7.0.0^{2,7}.0^{11,15}]heptadeca-1(10),7-dien-17-yl acetate] is 23-fold lower in IC50: 193 nM for the first, 8.4 nM for the second. The second is the more potent here.

Going from `COC[C@H]1OC(=O)C(=CN2CCN(CCCN(C)C)CC2)C2C(=O)C(=O)C3=C([C@H](OC(C)=O)C[C@@]4(C)C3CC[C@@H]4O)[C@]21C` (stereo partly drawn) [(2R,3S,6E,14S,15S,17R)-6-({4-[3-(dimethylamino)propyl]piperazin-1-yl}methylidene)-8,14-dihydroxy-3-(methoxymethyl)-2,15-dimethyl-5,9-dioxo-4-oxatetracyclo[8.7.0.0^{2,7}.0^{11,15}]heptadeca-1(10),7-dien-17-yl acetate] to `COC[C@H]1OC(=O)C(=CN2CCN(Cc3ccccc3)CC2)C2C(=O)C(=O)C3=C([C@H](OC(C)=O)C[C@@]4(C)C3CC[C@@H]4O)[C@]21C` (stereo partly drawn) [(2R,3S,6E,14S,15S,17R)-6-[(4-benzylpiperazin-1-yl)methylidene]-8,14-dihydroxy-3-(methoxymethyl)-2,15-dimethyl-5,9-dioxo-4-oxatetracyclo[8.7.0.0^{2,7}.0^{11,15}]heptadeca-1(10),7-dien-17-yl acetate], the IC50 rises from 38 nM to 87 nM (2.3-fold).

Going from `CCN(C=C1C(=O)O[C@H](COC)[C@]2(C)C3=C(C(=O)C(=O)C12)C1CC[C@H](O)[C@@]1(C)C[C@H]3OC(C)=O)CCN(CC)CC` (stereo partly drawn) [(2R,3S,6E,14S,15S,17R)-6-({[2-(diethylamino)ethyl](ethyl)amino}methylidene)-8,14-dihydroxy-3-(methoxymethyl)-2,15-dimethyl-5,9-dioxo-4-oxatetracyclo[8.7.0.0^{2,7}.0^{11,15}]heptadeca-1(10),7-dien-17-yl acetate] to `CCN(CC)CCN(C)C=C1C(=O)O[C@H](COC)[C@]2(C)C3=C(C(=O)C(=O)C12)C1CC[C@H](O)[C@@]1(C)C[C@H]3OC(C)=O` (stereo partly drawn) [(2R,3S,6E,14S,15S,17R)-6-({[2-(diethylamino)ethyl](methyl)amino}methylidene)-8,14-dihydroxy-3-(methoxymethyl)-2,15-dimethyl-5,9-dioxo-4-oxatetracyclo[8.7.0.0^{2,7}.0^{11,15}]heptadeca-1(10),7-dien-17-yl acetate], the IC50 rises from 24 nM to 50 nM (2.1-fold). The first is the more potent here.

Compared with `CCN(C=C1C(=O)O[C@H](COC)[C@]2(C)C3=C(C(=O)C(=O)C12)C1CC[C@H](O)[C@@]1(C)C[C@H]3OC(C)=O)CCN(C)C` (stereo partly drawn) [(2R,3S,6E,14S,15S,17R)-6-({[2-(dimethylamino)ethyl](ethyl)amino}methylidene)-8,14-dihydroxy-3-(methoxymethyl)-2,15-dimethyl-5,9-dioxo-4-oxatetracyclo[8.7.0.0^{2,7}.0^{11,15}]heptadeca-1(10),7-dien-17-yl acetate], `CCN(C=C1C(=O)O[C@H](COC)[C@]2(C)C3=C(C(=O)C(=O)C12)C1CC[C@H](O)[C@@]1(C)C[C@H]3OC(C)=O)CCCN(C)C` (stereo partly drawn) [(2R,3S,6E,14S,15S,17R)-6-({[3-(dimethylamino)propyl](ethyl)amino}methylidene)-8,14-dihydroxy-3-(methoxymethyl)-2,15-dimethyl-5,9-dioxo-4-oxatetracyclo[8.7.0.0^{2,7}.0^{11,15}]heptadeca-1(10),7-dien-17-yl acetate] is 2.4-fold higher in IC50: 5 nM for the first, 12 nM for the second.

Compared with `COC[C@H]1OC(=O)C(=CN(CCCN(C)C)CCCN(C)C)C2C(=O)C(=O)C3=C([C@H](OC(C)=O)C[C@@]4(C)C3CC[C@@H]4O)[C@]21C` (stereo partly drawn) [(2R,3S,6E,14S,15S,17R)-6-({bis[3-(dimethylamino)propyl]amino}methylidene)-8,14-dihydroxy-3-(methoxymethyl)-2,15-dimethyl-5,9-dioxo-4-oxatetracyclo[8.7.0.0^{2,7}.0^{11,15}]heptadeca-1(10),7-dien-17-yl acetate], `COC[C@H]1OC(=O)C(=CN(CCO)CCO)C2C(=O)C(=O)C3=C([C@H](OC(C)=O)C[C@@]4(C)C3CC[C@@H]4O)[C@]21C` (stereo partly drawn) [(2R,3S,6E,14S,15S,17R)-6-{[bis(2-hydroxyethyl)amino]methylidene}-8,14-dihydroxy-3-(methoxymethyl)-2,15-dimethyl-5,9-dioxo-4-oxatetracyclo[8.7.0.0^{2,7}.0^{11,15}]heptadeca-1(10),7-dien-17-yl acetate] is 42-fold higher in IC50: 22 nM for the first, 918 nM for the second.

`COC[C@H]1OC(=O)C(=CN2CCN(C3CCCCC3)CC2)C2C(=O)C(=O)C3=C([C@H](OC(C)=O)C[C@@]4(C)C3CC[C@@H]4O)[C@]21C` (stereo partly drawn) [(2R,3S,6E,14S,15S,17R)-6-[(4-cyclohexylpiperazin-1-yl)methylidene]-8,14-dihydroxy-3-(methoxymethyl)-2,15-dimethyl-5,9-dioxo-4-oxatetracyclo[8.7.0.0^{2,7}.0^{11,15}]heptadeca-1(10),7-dien-17-yl acetate] and `COC[C@H]1OC(=O)C(=CN2CCC(N3CCCCC3)CC2)C2C(=O)C(=O)C3=C([C@H](OC(C)=O)C[C@@]4(C)C3CC[C@@H]4O)[C@]21C` (stereo partly drawn) [(2R,3S,6E,14S,15S,17R)-8,14-dihydroxy-3-(methoxymethyl)-2,15-dimethyl-5,9-dioxo-6-{[4-(piperidin-1-yl)piperidin-1-yl]methylidene}-4-oxatetracyclo[8.7.0.0^{2,7}.0^{11,15}]heptadeca-1(10),7-dien-17-yl acetate] are within 1.5-fold of each other in IC50: 43 nM for the first, 63 nM for the second.

First: COC[C@H]1OC(=O)C(=CN(C)CC(O)CO)C2C(=O)C(=O)C3=C([C@H](OC(C)=O)C[C@@]4(C)C3CC[C@@H]4O)[C@]21C (stereo partly drawn) [(2R,3S,6E,14S,15S,17R)-6-{[(2,3-dihydroxypropyl)(methyl)amino]methylidene}-8,14-dihydroxy-3-(methoxymethyl)-2,15-dimethyl-5,9-dioxo-4-oxatetracyclo[8.7.0.0^{2,7}.0^{11,15}]heptadeca-1(10),7-dien-17-yl acetate]
Second: COC[C@H]1OC(=O)C(=CN2CCOCC2)C2C(=O)C(=O)C3=C([C@H](OC(C)=O)C[C@@]4(C)C3CC[C@@H]4O)[C@]21C (stereo partly drawn) [(2R,3S,6E,14S,15S,17R)-8,14-dihydroxy-3-(methoxymethyl)-2,15-dimethyl-6-(morpholin-4-ylmethylidene)-5,9-dioxo-4-oxatetracyclo[8.7.0.0^{2,7}.0^{11,15}]heptadeca-1(10),7-dien-17-yl acetate]
The IC50 of the first is 5.4-fold higher: 199 nM for the first, 37 nM for the second.

First: COC[C@H]1OC(=O)C(=CN(CCC#N)Cc2ccccc2)C2C(=O)C(=O)C3=C([C@H](OC(C)=O)C[C@@]4(C)C3CC[C@@H]4O)[C@]21C (stereo partly drawn) [(2R,3S,6E,14S,15S,17R)-6-{[benzyl(2-cyanoethyl)amino]methylidene}-8,14-dihydroxy-3-(methoxymethyl)-2,15-dimethyl-5,9-dioxo-4-oxatetracyclo[8.7.0.0^{2,7}.0^{11,15}]heptadeca-1(10),7-dien-17-yl acetate]
Second: COC[C@H]1OC(=O)C(=CN2CCN(c3ccccc3)CC2)C2C(=O)C(=O)C3=C([C@H](OC(C)=O)C[C@@]4(C)C3CC[C@@H]4O)[C@]21C (stereo partly drawn) [(2R,3S,6E,14S,15S,17R)-8,14-dihydroxy-3-(methoxymethyl)-2,15-dimethyl-5,9-dioxo-6-[(4-phenylpiperazin-1-yl)methylidene]-4-oxatetracyclo[8.7.0.0^{2,7}.0^{11,15}]heptadeca-1(10),7-dien-17-yl acetate]
The IC50 of the first is 7.9-fold higher: 444 nM for the first, 56 nM for the second.

First: COC[C@H]1OC(=O)C(=CN2CCC(=O)CC2)C2C(=O)C(=O)C3=C([C@H](OC(C)=O)C[C@@]4(C)C3CC[C@@H]4O)[C@]21C (stereo partly drawn) [(2R,3S,6E,14S,15S,17R)-8,14-dihydroxy-3-(methoxymethyl)-2,15-dimethyl-5,9-dioxo-6-[(4-oxopiperidin-1-yl)methylidene]-4-oxatetracyclo[8.7.0.0^{2,7}.0^{11,15}]heptadeca-1(10),7-dien-17-yl acetate]
Second: COC[C@H]1OC(=O)C(=CN2CCC(c3ccccc3)CC2)C2C(=O)C(=O)C3=C([C@H](OC(C)=O)C[C@@]4(C)C3CC[C@@H]4O)[C@]21C (stereo partly drawn) [(2R,3S,6E,14S,15S,17R)-8,14-dihydroxy-3-(methoxymethyl)-2,15-dimethyl-5,9-dioxo-6-[(4-phenylpiperidin-1-yl)methylidene]-4-oxatetracyclo[8.7.0.0^{2,7}.0^{11,15}]heptadeca-1(10),7-dien-17-yl acetate]
The IC50 of the first is 2.9-fold lower: 60 nM for the first, 172 nM for the second.

Same assay, conditions: pH 7.5; 22 °C

Work on `COC[C@H]1OC(=O)c2coc3c2[C@@]1(C)C1=C(C3=O)C2CC[C@H](O)[C@@]2(C)C[C@H]1OC(C)=O` (stereo partly drawn) [(1R,3R,5S,6S,18S)-6-hydroxy-18-(methoxymethyl)-1,5-dimethyl-11,16-dioxo-13,17-dioxapentacyclo[10.6.1.0^{2,10}.0^{5,9}.0^{15,19}]nonadeca-2(10),12(19),14-trien-3-yl acetate] yielded an IC50 of 2.7 nM.
